# Paper PMC8074287, “Analgesic and Anticancer Activity of Benzoxazole Clubbed 2-Pyrrolidinones as Novel Inhibitors of Monoacylglycerol Lipase” (Molecules, 2021)
# Assays:
# Assay in all cases: NCI60 single-dose SRB assay
# Assay type in all cases: cell-based, human
# [1] = system: 786-0; conditions: 786-0, Renal Cancer, 10 μM
# Procedure: (§1) Compounds 19 and 20 were supplied to National Cancer Institute (USA), for sulforhodamine B (SRB) assay and anticancer screening. Single-dose (10 µM) assay results for compounds 19 and 20 were provided as a mean of percent growth (% G) and growth inhibition (% GI) against 60 cell lines of nine types of cancers and are tabulated in Table 4. […] Both the compounds 19 and 20 were also found active on UO-31 renal cancer cell line with % GI of 21.18 and 29.95, respectively.
# (§2) Compounds 19 and 20 were supplied to National Cancer Institute (Bethesda, Maryland, USA), for in vitro sulforhodamine B (SRB) assay, anticancer screening on 60 cell lines of cancers of leukemia, melanoma, and tumors of the kidney, brain, breast, lung, colon, ovary, and prostate, as per their standard protocol. One dose anticancer results (NCI, USA) of compounds 19 and 20 are provided in the Supplementary Materials.
# [2] = system: NCI/ADR-RES; conditions: Ovarian Cancer, 10 μM
# Procedure: as §1, §2
# [3] = system: OVCAR-8; conditions: OVCAR-8, Ovarian Cancer, 10 μM
# Procedure: as §1, §2
# [4] = system: T-47D; conditions: Breast Cancer, 10 μM
# Procedure: as §1, §2
# [5] = system: MDA-MB-435; conditions: MDA-MB-435, Melanoma, 10 μM
# Procedure: as §1, §2
# [6] = system: HS 578T; conditions: Breast Cancer, 10 μM
# Procedure: as §1, §2
# [7] = system: HL-60(TB); conditions: Leukemia, 10 μM
# Procedure: as §1, §2
# [8] = system: A498; conditions: A498, Renal Cancer, 10 μM
# Procedure: as §1, §2
# [9] = system: MOLT-4; conditions: MOLT-4, Leukemia, 10 μM
# Procedure: as §1, §2
# [10] = system: SNB-75; conditions: SNB-75, CNS Cancer, 10 μM
# Procedure: as §1, §2
# [11] = system: M14; conditions: M14, Melanoma, 10 μM
# Procedure: as §1, §2
# [12] = system: SK-OV-3; conditions: SK-OV-3, Ovarian Cancer, 10 μM
# Procedure: as §1, §2
# [13] = system: COLO 205; conditions: COLO 205, Colon Cancer, 10 μM
# Procedure: as §1, §2
# [14] = system: A549/ATCC; conditions: Non-Small Cell Lung Cancer, 10 μM
# Procedure: as §1, §2
# [15] = system: RPMI-8226; conditions: RPMI-8226, Leukemia, 10 μM
# Procedure: as §1, §2
# [16] = system: SW-620; conditions: SW-620, Colon Cancer, 10 μM
# Procedure: as §1, §2
# [17] = system: NCI-H226; conditions: NCI-H226, Non-Small Cell Lung Cancer, 10 μM
# Procedure: as §1, §2
# [18] = system: DU-145; conditions: DU-145, Prostate Cancer, 10 μM
# Procedure: as §1, §2
# [19] = system: HOP-62; conditions: HOP-62, Non-Small Cell Lung Cancer, 10 μM
# Procedure: as §1, §2
# [20] = system: LOX IMVI; conditions: Melanoma, 10 μM
# Procedure: as §1, §2
# [21] = system: UO-31; conditions: UO-31, Renal Cancer, 10 μM
# Procedure: as §1, §2
# [22] = system: HOP-92; conditions: HOP-92, Non-Small Cell Lung Cancer, 10 μM
# Procedure: as §1, §2
# [23] = system: KM12; conditions: KM12, Colon Cancer, 10 μM
# Procedure: as §1, §2
# [24] = system: HCT-15; conditions: HCT-15, Colon Cancer, 10 μM
# Procedure: as §1, §2
# [25] = system: SF-539; conditions: SF-539, CNS Cancer, 10 μM
# Procedure: as §1, §2
# [26] = system: K-562; conditions: K-562, Leukemia, 10 μM
# Procedure: as §1, §2
# [27] = system: SK-MEL-2; conditions: SK-MEL-2, Melanoma, 10 μM
# Procedure: as §1, §2
# [28] = system: TK-10; conditions: TK-10, Renal Cancer, 10 μM
# Procedure: as §1, §2
# [29] = system: SK-MEL-5; conditions: SK-MEL-5, Melanoma, 10 μM
# Procedure: as §1, §2
# [30] = system: U251; conditions: U251, CNS Cancer, 10 μM
# Procedure: as §1, §2
# [31] = system: MDA-MB-231/ATCC; conditions: Breast Cancer, 10 μM
# Procedure: as §1, §2
structure (smiles),measurement,setting,value
"O=C1CC(c2nc3ccccc3o2)CN1c1ccc([N+](=O)[O-])cc1 (centres unmarked) [Compound 19, 4-(Benzo[d]oxazol-2-yl)-1-(4-nitrophenyl)pyrrolidin-2-one]",% G,[1],104.06%
same,% GI,[1],−4.06%
same,% G,[2],98.37%
same,% GI,[2],1.63%
same,% G,[3],101.95%
same,% GI,[3],−1.95%
same,% G,[4],80.01%
same,% GI,[4],19.99%
same,% G,[5],95.05%
same,% GI,[5],4.95%
same,% G,[6],101.81%
same,% GI,[6],−1.81%
same,% G,[7],100.09%
same,% GI,[7],−0.09%
same,% G,[8],113.46%
same,% GI,[8],−13.46%
same,% G,[9],93.64%
same,% GI,[9],6.36%
same,% G,[10],64.51%
same,% GI,[10],35.49%
same,% G,[11],101.37%
same,% GI,[11],−1.37%
same,% G,[12],88.34%
same,% GI,[12],11.66%
same,% G,[13],103.79%
same,% GI,[13],−3.79%
same,% G,[14],100.60%
same,% GI,[14],−0.60%
same,% G,[15],101.28%
same,% GI,[15],−1.28%
same,% G,[16],102.52%
same,% GI,[16],−2.52%
same,% G,[17],98.63%
same,% GI,[17],1.37%
same,% G,[18],110.09%
same,% GI,[18],−10.09%
same,% G,[19],85.04%
same,% GI,[19],14.96%
same,% G,[20],89.06%
same,% GI,[20],10.94%
same,% G,[21],78.82%
same,% GI,[21],21.18%
same,% G,[22],104.72%
same,% GI,[22],−4.72%
same,% G,[23],105.43%
same,% GI,[23],−5.43%
same,% G,[24],98.10%
same,% GI,[24],1.9%
same,% G,[25],95.59%
same,% GI,[25],4.41%
same,% G,[26],98.41%
same,% GI,[26],1.59%
same,% G,[27],102.31%
same,% GI,[27],−2.31%
same,% G,[28],110.14%
same,% GI,[28],−10.14%
same,% G,[29],98.72%
same,% GI,[29],1.28%
same,% G,[30],100.97%
same,% GI,[30],−0.97%
same,% G,[31],88.41%
same,% GI,[31],11.59%
